Measurements published in ChEMBL document CHEMBL3886889, “Substituted [1,2,4]triazolo[4,3-a]pyrazines as selective NK-3 receptor antagonists” (2016).

Columns and labels:
[1] = target: T1, Neuromedin-K receptor (Homo sapiens, UniProt P29371); assay: Functional Assay: Chinese Hamster Ovary recombinant cells expressing the human NK-3 receptor and a construct that encodes the photoprotein apoaequorin were used for this assay. The antagonist activity of compounds of the invention is measured following pre-incubation (3 minutes) of the compound (at various concentrations) with the cells, followed by addition of the reference agonist (NKA) at a final concentration equivalent to the EC80 (3 nM) and recording of emitted light (FDSS 6000 Hamamatsu) over the subsequent 90-second period. The intensity of the emitted light is integrated using the reader software. Compound antagonist activity is measured based on the concentration-dependent inhibition of the luminescence response to the addition of Neurokinin A.
T1 sequence (P29371 whole entry): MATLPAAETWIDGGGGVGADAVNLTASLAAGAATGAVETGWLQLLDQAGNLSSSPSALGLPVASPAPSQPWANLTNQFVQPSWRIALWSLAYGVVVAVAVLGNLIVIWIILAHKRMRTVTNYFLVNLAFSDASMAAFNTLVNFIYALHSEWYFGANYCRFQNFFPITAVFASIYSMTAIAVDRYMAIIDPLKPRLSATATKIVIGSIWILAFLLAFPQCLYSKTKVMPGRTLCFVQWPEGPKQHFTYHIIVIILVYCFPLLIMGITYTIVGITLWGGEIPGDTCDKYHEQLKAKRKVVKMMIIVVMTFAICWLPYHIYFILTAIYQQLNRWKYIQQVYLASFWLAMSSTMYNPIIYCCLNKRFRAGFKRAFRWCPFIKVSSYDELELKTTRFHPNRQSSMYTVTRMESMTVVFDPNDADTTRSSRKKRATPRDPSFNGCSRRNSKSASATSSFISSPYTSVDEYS

[2] = target: T1, Neuromedin-K receptor; assay: Competitive Binding Assay: The affinity of compounds of the invention for the human NK-3 receptor was determined by measuring the ability of compounds of the invention to competitively and reversibly displace a well-characterized NK-3 radioligand in a concentration-dependent manner.3H-SB222200 Binding Competition Assay with Human NK-3 ReceptorThe ability of compounds of the invention to inhibit the binding of the NK-3 receptor selective antagonist 3H-SB222200 was assessed by an in vitro radioligand binding assay. Membranes were prepared from Chinese hamster ovary recombinant cells stably expressing the human NK-3 receptor. The membranes were incubated with 5 nM 3H-SB222200 (ARC) in a HEPES 25 mM/NaCl 0.1M/CaCl2 1 mM/MgCl2 5 mM/BSA 0.5%/Saponin 10 μg/ml buffer at pH 7.4 and various concentrations of compounds of the invention. The amount of 3H-SB222200 bound to the receptor was determined after filtration by the quantification of membrane associated radioactivity using the TopCount-NXT reader (Packard).

Row | IC50 [1] [nM] | Ki [2] [nM] | SMILES
1 | 220 | 150 | CCC1c2nnc(-c3nc(C)ns3)n2CCN1C(=O)c1ccc(F)cc1 (racemic)
2 | 170 | 59 | Cc1nsc(-c2nnc3n2CCN(C(=O)c2ccc(F)cc2)C3CCO)n1 (racemic)
